Measured values from ChEMBL document CHEMBL1152578, “Inhibition of ribonuclease A by nucleoside-dibasic acid conjugates” (Bioorg Med Chem, 2009).
Activity calls are given as the source filed them. The calls are words filed in the database; no cut-off is given here.

Legend:
[1] = target: T1, Ribonuclease pancreatic (Homo sapiens) (UniProt P07998); assay: Inhibition of RNase A assessed as degradation of tRNA by agarose gel assay
T1 sequence (whole entry): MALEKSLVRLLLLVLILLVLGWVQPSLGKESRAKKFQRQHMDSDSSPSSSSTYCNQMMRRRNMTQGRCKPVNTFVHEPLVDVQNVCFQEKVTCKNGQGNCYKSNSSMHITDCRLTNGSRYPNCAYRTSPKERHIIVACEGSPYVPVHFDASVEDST

[2] = target: T1, Ribonuclease pancreatic (Homo sapiens); assay: Inhibition of RNase A at 1.5 mM by precipitation assay
Ribonuclease pancreatic = target: T2, Ribonuclease pancreatic (Homo sapiens, UniProt P07998); assay: Inhibition of RNase A using dixon plot by spectrophotometric method
T2 sequence (P07998 whole entry): T1 sequence (whole entry)

Cc1cn([C@H]2C[C@H](NC(=O)C(=O)O)[C@@H](CO)O2)c(=O)[nH]c1=O
Activity [1]: Active
inhibition [2]: Active
Ki (Ribonuclease pancreatic): 132 µM

Cc1cn([C@H]2C[C@H](NC(=O)CCC(=O)O)[C@@H](CO)O2)c(=O)[nH]c1=O
Ki (Ribonuclease pancreatic): 918 µM

Cc1cn([C@H]2C[C@H](NC(=O)CC(=O)O)[C@@H](CO)O2)c(=O)[nH]c1=O
Ki (Ribonuclease pancreatic): 380 µM
